Key:
[1] = logP determination by HPLC on reversed-phase column (C18), EEC Directive 79/831 Annex V.A8; format: physicochemical; settings: for logPa: C18, 40° C., 0.1% aqueous formic acid and acetonitrile; for log P (pH 2.3): pH 2.3, C18
Method: Calibration was carried out using unbranched alkan-2-ones (comprising 3 to 16 carbon atoms) with known logP values (determination of the logP values by the retention times using linear interpolation between two successive alkanones).

Myzus persicae = assay: Efficacy Example H: in vivo protective test on Myzus persicae (MYZUPE); settings: Chinese cabbage leaf-disks infected with all instars of green peach aphid, sprayed; concentration and time not given
Method: in vivo Protective Test on Myzus persicae (MYZUPE)
(§1) To produce a suitable preparation of active compound, 1 part by weight of active compound is mixed with the stated amount of solvent and emulsifier, and the concentrate is diluted with emulsifier-containing water to the desired concentration.
Chinese cabbage (Brassica pekinesis) leaf-disks infected with all instars of the green peach aphid (Myzus persicae), are sprayed with a preparation of the active ingredient at the desired concentration.
After the specified period of time, mortality in % is determined. 100% means that all aphids have been killed; 0% means that none of the aphids have been killed.

Heliothis viresens = assay: Efficacy Example I: in vivo protective test on Heliothis viresens (HELIVI); parameters: species or system Heliotis virescens; settings: soybean leaf sections sprayed, infested with eggs of cotton bollworm; concentration and time not given
Method: in vivo Protective Test on Heliothis viresens (HELIVI)
as §1
Soybean (Glycine max.) leaf sections are sprayed with a preparation of the active ingredient of the desired concentration. Once dry, the leaf sections are infested with eggs of cotton bollworm (Heliotis virescens).
After the specified period of time, mortality in % is determined. 100% means that all eggs have been killed and 0% means that none of the eggs have been killed.

Row | Structure (SMILES) | logPa [1] | further results
1 | CCCCNc1ccc2ccc(Oc3cc(C)c(N=CN(C)CC)cc3C)cc2c1 [Compound 24] | 2.62 | –
2 | CCN(C)C=Nc1cc(C)c(Oc2ccc3ccc(OC)cc3c2)cc1C [Compound 17] | 2.44 | activity (mortality in %) (Myzus persicae): good activity
3 | Cc1cc(Oc2ccc3ccccc3c2)c(C)cc1N=CN1CCOCC1 [Compound 21] | 2.21 | –
4 | CCN(C)C=Nc1cc(C)c(Oc2ccc3ccccc3c2)cc1C [Compound 1, N-ethyl-N-methyl-N′-[4-(naphthyl-2-oxy)-2,5-xylyl]form-amidine] | – | log P (pH 2.3) [1]: 2.38
5 | CCN(C)C=Nc1cc(C)c(Oc2ccc3ccccc3c2)cc1C.O=C(O)C(=O)O [Compound 35] | 2.25 | –
6 | CCCCNc1ccc2ccc(Oc3cc(C)c(N=CN(C)CCC)cc3C)cc2c1 [Compound 25] | 2.91 | –
7 | Cc1cc(Oc2ccc3ccccc3c2)c(C)cc1N=CN1CCN(C)CC1 [Compound 23] | 1.64 | –
8 | CCN(C)C=Nc1cc(C)c(Oc2cccc3ccccc23)cc1C [Compound 32] | 2.43 | –
9 | Cc1cc(Oc2ccc3cc(C(=O)c4ccccc4)ccc3c2)c(C)cc1N=CN(C)C(C)C [Compound 13] | 2.75 | activity (mortality in %) (Heliothis viresens): good activity
10 | CC(=O)O.CCN(C)C=Nc1cc(C)c(Oc2ccc3ccccc3c2)cc1C [Compound 34] | 2.33 | –
11 | CCN(C)C=Nc1cc(C)c(Oc2ccc3cc(Br)ccc3c2)cc1C [Compound 8] | 2.69 | –
12 | CCN(C)C=Nc1cc(C)c(Oc2ccc3cc(C(O)c4ccccc4)ccc3c2)cc1C (racemic) [Compound 19] | 2.21 | –
13 | Cc1cc(Oc2ccc3cc(C#N)ccc3c2)c(C)cc1N=CN(C)C(C)C [Compound 12] | 2.20 | –
14 | CCN(C)C=Nc1cc(C)c(Oc2ccc3cc(C(=O)c4ccccc4)ccc3c2)cc1C [Compound 14] | 2.66 | –
15 | CCN(C)C=Nc1cc(C)c(Oc2ccc3cc(C#N)ccc3c2)cc1C [Compound 11] | 2.07 | –
16 | Cc1cc(Oc2ccc3ccccc3c2)c(C)cc1N=CN1CCCCC1 [Compound 2, Piperidinyl-N-[4-(naphthyl-2-oxy)-2,5-xylyl]form-amidine] | – | log P (pH 2.3) [1]: 2.51
17 | CCCN(C)C=Nc1cc(C)c(Oc2ccc3cc(Br)ccc3c2)cc1C [Compound 9] | 2.89 | –
18 | CCN(C)C=Nc1cc(C)c(Oc2ccc3cc(C(=NOC)c4ccccc4)ccc3c2)cc1C [Compound 28] | 3.05 | –

Row | Structure (SMILES) | logPa [1] | further results
19 | CCN(C)C=Nc1cc(C)c(Oc2ccc3ccccc3c2)cc1C.O=C(O)c1ccccc1 [Compound 36] | 2.44 | –
20 | CCCN(C)C=Nc1cc(C)c(Oc2ccc3cc(C#N)ccc3c2)cc1C [Compound 10] | 2.23 | activity (mortality in %) (Heliothis viresens): good activity
21 | Cc1cc(Oc2ccc3ccc(O)cc3c2)c(C)cc1N=CN(C)C(C)C [Compound 6] | 2.02 | –
22 | Cc1cc(Oc2ccc3cc(S(=O)(=O)NCCO)ccc3c2)c(C)cc1N=CN(C)C(C)C [Compound 31] | 1.75 | –
23 | CCCN(C)C=Nc1cc(C)c(Oc2ccc3ccc(OC)cc3c2)cc1C [Compound 18] | 2.61 | –
24 | Cc1cc(Oc2ccc3cc(Br)ccc3c2)c(C)cc1N=CN(C)C(C)C [Compound 7] | 2.92 | –
25 | CCCN(C)C=Nc1cc(C)c(Oc2ccc3cc(C(=O)c4ccccc4)ccc3c2)cc1C [Compound 15] | 2.77 | –
26 | COc1ccc2cc(Oc3cc(C)c(N=CN(C)C(C)C)cc3C)ccc2c1 [Compound 30] | 2.70 | –
27 | Cc1cc(Oc2ccc3ccccc3c2)c(C)cc1N=CN1CCCC1 [Compound 26] | 2.33 | –
28 | CON=C(c1ccccc1)c1ccc2cc(Oc3cc(C)c(N=CN(C)C(C)C)cc3C)ccc2c1 [Compound 27] | 3.20 | –
29 | Cc1cc([N+](=O)[O-])c(C)cc1Oc1ccc2ccccc2c1 [4-(naphthyl-2-oxy)-2,5-dimethylnitrobenzene] | – | log P (pH 2.3) [1]: 5.04
30 | COc1ccc2ccc(Oc3cc(C)c(N=CN(C)C(C)C)cc3C)cc2c1 [Compound 16] | 2.56 | –
31 | Cc1cc(Oc2ccc3ccccc3c2)c(C)cc1N=CN1CCNCC1 [Compound 22] | 1.55 | –
32 | CCN(C)C=Nc1cc(C)c(Oc2ccc3ccc(O)cc3c2)cc1C [Compound 5] | 1.92 | –
33 | CCCCNc1ccc2ccc(Oc3cc(C)c(N=CN(C)C(C)C)cc3C)cc2c1 [Compound 20] | 2.91 | –
34 | CCCN(C)C=Nc1cc(C)c(Oc2ccc3cc(C(=NOC)c4ccccc4)ccc3c2)cc1C [Compound 29] | 3.14 | –
35 | Cc1cc(Oc2ccc3ccccc3c2)c(C)cc1N=CN(C)C(C)C [Compound 4] | 2.52 | –
